Some test systems named below: CAKI-1 renal; CCRF-CEM leukemia; HOP-62 NSCLC; HOP-92 NSCLC; NCI-H460 lung; SF-539 CNS; SK-MEL-28 melanoma; SN12C renal; U251 CNS; HL-60(TB) leukemia.
What all share (assay): NCI tumour cell line growth inhibition, 48 h

This is an account of results in PubChem BioAssay (NCI).

Where “and” joins values, the source holds several entries; their conditions need not be identical. Equal entries are not always repeated.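 Compound exposure: 48 hours, 5 concentrations, 96-well plates. GI50 = concentration required for 50% inhibition of growth. Definition used: TGI = concentration required for complete inhibition of growth.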

On to `O=C(Nc1ccccc1)Nc1ccc2cc3ccc(NC(=O)Nc4ccccc4)cc3nc2c1`, for which the GI50 in the assay on CAKI-1 renal is 2.95 µM; with CCRF-CEM leukemia, 276 nM; in the assay with HOP-62 NSCLC it was 1.59 µM; in the assay with HOP-92 NSCLC it was 1.58 µM; in the assay with NCI-H460 lung it was 3.95 µM; with SF-539 CNS it was 1630 nM. In addition, the GI50 in the assay with SK-MEL-28 melanoma was 1820 nM; with SN12C renal, 1340 nM; in the assay on U251 CNS, 978 nM. In addition, the TGI in the assay with CAKI-1 renal is 12.3 µM; with CCRF-CEM leukemia, 0.828 µM; with HOP-62 NSCLC, 3.4 µM; in the assay with HOP-92 NSCLC it was 3.2 µM; in the assay on NCI-H460 lung, above 100 µM; in the assay with SF-539 CNS, 3.01 µM. Also, the TGI was 3.22 µM in the assay with SK-MEL-28 melanoma, 2.72 µM in the assay with SN12C renal and 2.28 µM with U251 CNS.

With `O=C1N2Cc3c4ccc5c3CN3C(=O)N6Cc7c(ccc(c7CN1C6(c1ccccc1)C23c1ccccc1)OCCOCCNCCOCCO4)OCCOCCNCCOCCO5` (stereo not given), the TGI in the assay on CAKI-1 renal is above 100 µM; in the assay on CCRF-CEM leukemia, above 100 µM; in the assay on HOP-62 NSCLC, above 100 µM; in the assay on HOP-92 NSCLC, 57.4 µM; in the assay on NCI-H460 lung, above 100 µM; in the assay on SF-539 CNS, above 100 µM. The TGI with SK-MEL-28 melanoma is above 100 µM; with SN12C renal it was 89.1 µM; with U251 CNS, above 100 µM.

As for `O=C1CC(c2cccc(F)c2)Nc2cc3c(cc21)OCO3` (stereo not given), the GI50 is below 0.01 µM in the assay on CAKI-1 renal; below 10 nM in the assay with CCRF-CEM leukemia; 2.65 µM with HOP-62 NSCLC; 30.8 µM with HOP-92 NSCLC; below 10 nM in the assay on SF-539 CNS; 207 nM with SN12C renal. In the assay with U251 CNS, the GI50 is below 10 nM. The TGI in the assay with CAKI-1 renal, in the assay on CCRF-CEM leukemia, in the assay on HOP-62 NSCLC, in the assay on HOP-92 NSCLC, in the assay with SN12C renal and in the assay on U251 CNS was above 100 µM in each case.

Take `COC(=O)c1ccc(CN2C(=O)C(Cl)=C(Nc3cccc(Cl)c3C)C2=O)cc1`: the GI50 in the assay with CAKI-1 renal is 26.5 µM; in the assay with CCRF-CEM leukemia, 3320 nM; with HOP-62 NSCLC, 14.2 µM; with HOP-92 NSCLC it was 17 µM; in the assay on NCI-H460 lung, 34.5 µM; in the assay with SF-539 CNS it was 23100 nM. The GI50 in the assay on SK-MEL-28 melanoma is 15200 nM; in the assay with SN12C renal, 18200 nM; in the assay on U251 CNS it was 32400 nM. The TGI with CAKI-1 renal is 71.6 µM; in the assay with CCRF-CEM leukemia, above 100 µM; in the assay with HOP-62 NSCLC, above 100 µM; in the assay with HOP-92 NSCLC, above 100 µM; in the assay on NCI-H460 lung, above 100 µM; with SF-539 CNS, 58.7 µM. Further, the TGI in the assay on SK-MEL-28 melanoma is above 100 µM; in the assay on SN12C renal, 55.4 µM; with U251 CNS it was above 100 µM.

On to `CN(C)CCNC(=O)c1cccc2cc3c(Cl)cccc3nc12`, for which the TGI with CAKI-1 renal is above 21.8 µM; in the assay on HOP-62 NSCLC it was 2.55 µM; in the assay with HOP-92 NSCLC, 4.28 µM; with SF-539 CNS it was 4.03 µM; with SK-MEL-28 melanoma, 5.4 µM; in the assay on SN12C renal it was 3.95 µM. This molecule also registered a TGI in the assay with U251 CNS of 6.3 µM.

Consider `CCOC(=O)C(=O)CC1=Nc2ccccc2SC(c2cccc(C)c2)C1` (stereo not given), for which the TGI in the assay on CAKI-1 renal amounted to 54 µM; with CCRF-CEM leukemia it was 63.1 µM; with HOP-62 NSCLC, 49.4 µM; in the assay with HOP-92 NSCLC, 32 µM; in the assay on NCI-H460 lung it was 36.4 µM; in the assay on SF-539 CNS it was 35.1 µM. The figures for the TGI in the assay on SK-MEL-28 melanoma, in the assay with SN12C renal and with U251 CNS were 29.3 µM, 31.2 µM and 31 µM, respectively.

As to `CC1=C(C(=O)Nc2ccccc2)C(c2cccc3ccccc23)C(C(=O)Nc2ccccc2)=C(C)N1`, the TGI in the assay with CAKI-1 renal amounted to 38.2 µM; in the assay on CCRF-CEM leukemia it was 59.6 µM; in the assay on HL-60(TB) leukemia it was 40 µM; with HOP-62 NSCLC it was 35.4 µM; in the assay on HOP-92 NSCLC, 58.8 µM; in the assay with SF-539 CNS, 37.9 µM. Further, the TGI stood at 34.7 µM with SK-MEL-28 melanoma, 33.3 µM in the assay on SN12C renal and 31.3 µM in the assay with U251 CNS.

With `O=S(=O)(O)c1cc(O)c(N=Nc2ccc(O)cc2O)c2ccccc12`, the TGI in the assay with CAKI-1 renal, with CCRF-CEM leukemia, with HL-60(TB) leukemia, with HOP-62 NSCLC, in the assay with HOP-92 NSCLC and with SK-MEL-28 melanoma was above 100 µM throughout. In addition, the TGI in the assay on SN12C renal and in the assay with U251 CNS was above 100 µM throughout.

Consider `CCCCCCCCCCCCCCCCCCn1cc[n+](C)c1`, for which the GI50 in the assay with CCRF-CEM leukemia was 127 nM and 458 nM; with HL-60(TB) leukemia it was 143 nM and 293 nM; with HOP-92 NSCLC, 0.35 µM; with NCI-H460 lung, 0.521 µM and 0.659 µM; in the assay with SF-539 CNS, 1060 nM; in the assay on SK-MEL-28 melanoma, 1010 nM and 1150 nM. In addition, the GI50 in the assay on SN12C renal was 1070 nM and 826 nM; with U251 CNS it was 372 nM and 397 nM. The TGI is 0.336 µM and 1.67 µM in the assay with HL-60(TB) leukemia; 2.62 µM in the assay on HOP-92 NSCLC; 1.8 µM and 2.11 µM in the assay on NCI-H460 lung; 2.4 µM with SF-539 CNS; 2.41 µM and 2.59 µM in the assay with SK-MEL-28 melanoma; 2.47 µM and 2.3 µM in the assay on SN12C renal. In addition, in the assay on U251 CNS, the TGI came out at 1.51 µM.

On to `O=C1C=CC=C/C1=C1/SC(c2ccccc2)=C(O)N1c1ccccc1`, for which the TGI in the assay with CAKI-1 renal, in the assay with HOP-92 NSCLC, with SF-539 CNS, with SK-MEL-28 melanoma, in the assay on SN12C renal and in the assay on U251 CNS was above 100 µM throughout.

As to `Nc1ccc(C2=CC(c3ccc(Cl)cc3)N3C=CSC3=N2)cc1` (stereo not given), the GI50 with CAKI-1 renal is 23.1 µM; with HL-60(TB) leukemia, 6130 nM; in the assay on HOP-62 NSCLC, 4.38 µM; with HOP-92 NSCLC it was 17.7 µM; in the assay on NCI-H460 lung it was 20.2 µM; in the assay on SF-539 CNS it was 1840 nM. Further, the results for the GI50 in the assay on SK-MEL-28 melanoma, in the assay on SN12C renal and in the assay with U251 CNS were 4860 nM, 6400 nM and 2940 nM, respectively. Moreover, the TGI in the assay on CAKI-1 renal was above 100 µM; in the assay on HL-60(TB) leukemia, 53.5 µM; in the assay on HOP-62 NSCLC, 16.4 µM; with HOP-92 NSCLC, 72.4 µM; with NCI-H460 lung, above 100 µM; in the assay with SF-539 CNS, 3.85 µM. The TGI in the assay with SK-MEL-28 melanoma is 16.6 µM; in the assay with SN12C renal, 26.9 µM; in the assay on U251 CNS, 12.1 µM.
